Read-outs that look alike come from different tables or passages of the source.
How the values were obtained:
[1] = tested on: intracellular amastigotes of Leishmania panamensis; assay: Leishmanicidal activity on intracellular amastigotes, flow cytometry (GFP); type: cell-based; details: for Index of Selectivity huMDM: IS = LC50 in huMDM/EC50 for L. panamensis; for EC50: Leishmania panamensis, read-out: Biological activity CE50 Leishmanicidal
Protocol: The leishmanicidal activity was tested on intracellular amastigotes of Leishmania panamensis by flow cytometry following the methodology previously described. Previously, huMDM were infected with promastigotes of L. panamensis transfected with the green fluorescent protein gene (MHOM/CO/87/UA140pIR-GFP) in a proportion of 35:1 (parasites:cells). Plates were incubated at 34 °C, 5% CO2, and after 3 h, cells were washed twice with phosphate buffer (PBS) and incubated again. After 24 h, the infected cells were exposed for 72 h to each concentration of the compounds. Cells were removed using trypsin/EDTA solution and washed twice with PBS by centrifuging 10 min at 1,100 rpm, 4 °C. Then, cells were analyzed in a flow cytometer (Cytomics FC 500MPL, Brea, CA, USA) by reading at 488-nm excitation, 525-nm emissions over an argon laser and counting 10,000 events. The percentage of infected cells was determined by dot plot analysis, while the parasitic load was calculated by the mean fluorescence intensity using histogram analysis. In parallel, cells incubated in medium alone were used as the controls of infection (negative control), and cells exposed to amphotericin B were used as controls of leishmanicidal activity (positive control). Each concentration was assessed in triplicate in at least two independent experiments.
Antileishmanial activity was determined according to the reduction of infected cells and their parasite load obtained for each experimental condition according to the fluorescence median intensity (FMI) emitted by the cytometer and using Equation 3, where the % of parasitemia in unexposed cells corresponds to 100% parasitemia. […] Results are expressed as the median effective concentration (EC50) calculated by probit analysis using the % of inhibition of infection: % parasitemia = (FMI Exposed cells)/(FMI unexposed cells) × 100(3)
(§1) The index of selectivity was calculated with the equation: IS = LC50/EC50.

[2] = in vitro; details: human
Protocol: Primary cultures of human monocyte-derived macrophages (huMDMs) and human red blood cells (huRBCs) obtained from healthy donors after signing the informed consent were also used. The huMDM were obtained from peripheral mononuclear cells isolated by Ficoll-Hypaque 1077 gradient centrifugation. huMDMs were suspended at 3 × 10^5 cells/mL in RPMI 1640 medium supplemented with 10% autologous serum. One mL of suspension was dispensed into each well of 24-well chamber slides and incubated at 37 °C, 5% of CO2 for 72 h, according to a previously described methodology. On the other hand, huRBCs were obtained from sodium citrate anticoagulated whole blood. After centrifugation at 1,500 rpm for 10 min, the RBCs were recovered and suspended in RPMI 1640 medium at 50% hematocrit and stored at 4 °C until use.
(§2) Cytotoxic activity of rotenone and it derivatives on U-937, Vero, HepG2, […] and huMDM cells was evaluated in vitro using the MTT (3-(4,5-dimethylthiazol-2-yl)-2,5-diphenyltetrazolium bromide assay) as described previously. Cells were adjusted to 1 × 10^5 U-937 cells/mL, 2.5 × 10^5 Vero, HepG2 or CAD-R1 cells/mL and 5 × 10^5 huMDM cells/mL in RPMI 1640 supplemented with 10% SBF and the corresponding concentration of each compound. Six serial-based four-dilution concentrations from 200 to 0.19 μg/mL were tested. The amount of formazan produced by the viable cells was registered as optical densities (OD) obtained in an ELISA reader (Bio-Rad) at 570 nm. […] Additionally, hemolytic activity on huRBCs was assessed by the osmotic lysis method. In brief, O positive (O+) huRBCs were adjusted at 3% hematocrit saline solution and incubated in the presence of each compound (six serial four-fold dilutions from 200 to 0.19 µg/mL) at 37 °C. After 2 h, hemoglobin concentration in the supernatant was measured according to the OD obtained in an ELISA reader plate (Bio-Rad) at 570 nm. Cells exposed to saline solution with Triton X-100 were used as positive (lyses) controls, while unexposed cells were used as negative (viability) controls. Each compound and each concentration were assessed in triplicate in at least two separate experiments.
(§3) The percentage of viability (%V) was calculated using Equation 1, where the optical density (OD) of unexposed cells (negative control) corresponds to 100% of viability. In turn, mortality percentage corresponds to 100%–% viability: % Viability = (OD Exposed cells)/(OD Control cells) × 100(1)

[3] = tested on: Plasmodium falciparum (chloroquine sensitive 3D7 strain); assay: microbe, parasite or virus in culture; type: cell-based; details: for Index of Selectivity huRBC: IS = LC50 in huRBC/EC50 in P. falciparum; for EC50: read-out: Biological activity CE50 Antiplasmodial
Protocol: The effect of compounds on the growth of the parasites was assessed by quantification of the parasite DNA stained with ethidium bromide (EtBr). Briefly, unsynchronized cultures of P. falciparum were adjusted to a 1.5%–2% parasitemia and 5% hematocrit in RPMI medium supplemented with 10% human serum. Then, 500 µL of parasites and 500 µL of each concentration of compound were placed in each well of 24-well plates. Plates were incubated for 72 h at 37 °C in a N2 (90%), CO2 (5%) and O2 (5%) atmosphere. […] After 72 h of exposure, DNA from parasites was extracted and purified using a lysis solution containing proteinase K. Each compound and each concentration were assessed in triplicate in at least two separate experiments.
Results are expressed as the median effective concentration (EC50) calculated by probit analysis using the % of inhibition: % parasite growth = (FAU Exposed parasites)/(FAU unexposed parasites) × 100(2)
as §1

[4] = in vitro
Text: U937 cells (CRL-1593^TM) were isolated from human histiocytic lymphoma; Vero cells (CCL-81^TM) were derived from the kidney of the African green monkey, Cercopithecus aethiops; HepG2 (HB-8065^TM) cells were derived from human liver tissue, and CAD-R1 cells, a subclone, were derived from mouse neuronal cells. All cell lines were from American Type Culture Collection (Manassas, VA, USA), except CAD-R1 cells that were kindly donated by D. Chikaraishi and J. Wang (Department of Neurobiology, Duke University Medical Center, Durham, NC, USA). All cell lines were cultured in standard conditions at 37 °C, 5% CO2. U-937 cells were cultivated in RPMI 1640 medium supplemented with 10% fetal bovine serum (FBS) and antibiotics (penicillin 100 U/mL and streptomycin 0.1 mg/mL). Vero, HepG2 and CAD-R1 were cultivated in DMEM medium supplemented with 5% FBS and antibiotics.
as §2, §3

[5] = L. panamensis intracellular amastigotes in huMDM, 72 h exposure, ± SD, n = 6 replicates
[6] = Plasmodium falciparum, 3D7, 72 h, total forms of P. falciparum 3D7, unsynchronized culture, 72 h, ± SD, n = 6 replicates
[7] = total forms of P. falciparum 3D7, unsynchronized culture, 72 h, ± SD, n = 6 replicates
[8] = African green monkey (Cercopithecus aethiops)

SMILES	Index of Selectivity huMDM [1]	EC50 [1, 5]	CC50 [2]	Index of Selectivity huRBC [3]	EC50 [3, 6]	EC50 [3, 7]	CC50 [4, 8]	CC50 ([4]; mouse)	EC50 ([1]; 72 h)	activity against intracellular amastigotes (in words) ([1]; antileishmanial activity, L. panamensis)	CC50 at 2 h [2]	Index of Selectivity huRBC ([3]; listed as 1 (Rotenone))	EC50 ([3]; Plasmodium falciparum, 3D7, 72 h)
C=C(C)[C@H]1Cc2c(ccc3c2O[C@@H]2COc4cc(OC)c(OC)cc4[C@@H]2C3O)O1 (stereo partly drawn) [Compound 3, 2R,6aR,12aS-8,9-Dimethoxy-2-(prop-1-en-2-yl)-1,2,6,6a,12,12a-hexahydrochromeno[3,4-b]furo[2,3-h]chromen-6-ol]	<3.9	> 130 µM	> 523 µM	>9.6	< 50 µM	53.9 ± 2.4 µM	284 ± 23.6 µM	17 ± 3.4 µM					
COc1cc2c(cc1OC)C1Cc3ccc4c(c3O[C@@H]1CO2)C[C@H](C(C)C)O4 (stereo partly drawn) [Compound 7, 2R,6aS,12aS-2-Isopropyl-8,9-dimethoxy-1,2,6,6a,12,12a-hexahydrochromeno-[3,4-b]furo[2,3-h]-chromene]	<4.0	> 119 µM	> 476 µM	8.7	< 50 µM	47.4 ± 0.2 µM	> 476 µM	1.67 ± 0.9 µM					
COc1cccc2c1C(=O)c1c(O)c3c(c(O)c1C2=O)C[C@@](O)(C(=O)CO)C[C@@H]3O[C@H]1C[C@H](N)[C@H](O)[C@H](C)O1 [Doxorubicin, reference compound]							9.36 ± 2.2 µM	2.6 ± 0.7 µM					
CCN(CC)CCCC(C)Nc1ccnc2cc(Cl)ccc12 (stereo not drawn) [Chloroquine, reference compound]					0.06 ± 0.03 µM								
C[C@@H]1[C@H](O)[C@@H](C)/C=C/C=C/C=C/C=C/C=C/C=C/C=C/[C@H](O[C@@H]2O[C@H](C)[C@@H](O)[C@H](N)[C@@H]2O)C[C@@H]2O[C@](O)(C[C@@H](O)C[C@@H](O)[C@H](O)CC[C@@H](O)C[C@@H](O)CC(=O)O[C@H]1C)C[C@H](O)[C@H]2C(=O)O [Amphotericin B, reference compound]	143.0	0.8 ± 0.2 µM					15.6 ± 0.4 µM	54.5 ± 0.3 µM					
C=C(C)[C@H]1Cc2c(ccc3c2O[C@@H]2COc4cc(OC)c(OC)cc4[C@@H]2C3=O)O1 [Compound 1, rotenone]	3.1						> 508 µM	10.2 µM	127 ± 17.3 µM	inactive	> 508 µM	>26.1	19 ± 8.6 µM
COc1cc2c(cc1OC)[C@@H]1C(=O)c3ccc4c(c3O[C@@H]1CO2)C[C@H](C1(C)CO1)O4 (stereo partly drawn) [Compound 2, 6aS,12aS-8,9-Dimethoxy-2-(2-methyloxiran-2-yl)-1,2,12,12a-tetrahydrochromeno[3,4-b]furo[2,3-h]-chromen-6(6aH)-one]	<3.6	> 126 µM	> 505 µM	>12.1	< 50 µM	41.7 ± 12.6 µM	81.3 ± 16.9 µM	29 ± 3 µM					
